Measurements from US12729192B2, “CDK9 inhibitor and use thereof” (PHARMABLOCK SCIENCES (NANJING), INC., priority 2020, dated 2026).
Like-named read-outs stand apart in the source and are kept apart here.

Assays:
CDK9 = CDK9 (Homo sapiens, UniProt P50750); assay: CDK9 kinase activity inhibition (ADP-Glo); type: biochemical; conditions: 10 μM ATP, 2 h at room temperature
Experimental: (§1) CDK9 kinase was manufactured by the company or commercially available. CDK1, CDK2 and CDK7 were purchased from Carna Biosciences, Inc. ADP-Glo™ kit was purchased from Promega Corporation. Dithiothreitol (DTT), Tween-20, dimethylsulfoxide (DMSO), bovine serum albumin (BSA) and Tris base were obtained from Sigma at the available highest level of purity.
(§2) General procedures for CDK inhibition determination: The determination was performed in a buffer consisting of 50 μM DTT, 0.1% BSA, 40 mM Tris-HCl pH=7.5 and 20 mM MgCl2. The compound dissolved in DMSO and CDK enzymes were diluted with the buffer. 1 μL of the compound solution in 5% DMSO and 2 μL of the CDK enzyme solution were added to a white low-volume 384-well microtiter plate and incubated for 20 min at room temperature. Ultra pure ATP and the substrate polypeptide (purchased from GenScript Biotech Corporation) were diluted together into the buffer and added to a mixed solution of the compound and the enzyme, 2 μL per well. They were incubated for 2 h at room temperature.
(§3) After the reaction was completed, 5 μL of ADP-Glo™ reagent was added to each well and incubated for 40 min at room temperature, and then 10 μL of test reagent was added to each well and incubated for 30 mi at room temperature. Chemical luminescence values were measured by using a Tecan (Männedorf, Switzerland) multifunctional plate reader Spark for plate reading. The IC50 value of the inhibitor was obtained by fitting the chemical luminescence intensity ratio in the S-shaped dosage reaction curve using Prism 7 (La Jolla, 15 CA) relative to the concentration of the inhibitor.

CDK2 = target: T1, CDK2 (Homo sapiens, UniProt P24941); assay: CDK2 kinase activity inhibition (ADP-Glo); type: biochemical; conditions: 10 μM ATP, 2 h at room temperature
T1 construct: purchased Carna Biosciences, Inc
Experimental: as §1, §2, §3

MOLM-13 cells = assay: Tumor cell proliferation inhibition experiment (CellTiter-Glo); type: cell-based; conditions: Homo sapiens, read-out: MOLM-13 (nM) IC50, cell proliferation inhibition
From the text: An acute myeloid leukemia (AML) cell line (MOLM-13) was purchased from NANJING COBIOER BIOSCIENCES CO., LTD. An RPMI1640 medium and a penicillin-streptomycin double-antibody were purchased from ThermoFisher (Waltham, MA, USA). Certified fetal bovine serum (FBS) was purchased from Biological Industries (Israel). A Corning 384-well cell culture plate was purchased from CORNING (USA). Cell-Titer Glo® was purchased from Promega Corporation (Madison, WI, USA).
To evaluate the ability of the synthetic compound to inhibit the proliferation of MOLM-13 cells, MOLM-13 cells at an exponential growth stage were inoculated at a density of 500,000 cell/mL in the RPMI1640 medium containing 20% bovine serum and 1% penicillin-streptomycin double-antibody, and the 384-well plate contained 20 μL per well and placed overnight in an 37° C., 5% CO2 incubator. Compound powder was dissolved in DMSO to prepare a storage mother liquor with a concentration of 2 mM, and 12 dilutions with three-fold gradient concentrations were further prepared. 1 μL of gradient-diluted DMSO solution was added to 99 μL of cell culture medium (the final maximum concentration of the compound in the assay was 10 uM and the final concentration of DMSO was 0.5%). 20 μL of compound solution in the medium was added at gradients to each cell-coated test well of the 384-well plate. After the compound solution was added, the 384-well plate was incubated for 16 h in a 37° C., 5% CO2 incubator. Cell viability was determined by quantifying ATPs present in test wells using the CellTiter-Glo kit from Promega (Madison, WI, USA). After 20 minutes of incubation, readings were obtained under a chemical luminescence procedure using Tecan's Spark multifunctional plate reader. The concentration (IC50 value) of the compound at which the cell survival rate was inhibited by 50% was determined using an S-shaped dosage response model (variable slope, four parameters) in Prism 7 (LaJolla, CA).

CDK1 = target: T2, CDK1 (Homo sapiens, UniProt P06493); assay: CDK1 kinase activity inhibition (ADP-Glo); type: biochemical; conditions: 50 μM ATP, 2 h at room temperature
T2 construct: purchased Carna Biosciences, Inc
T2 sequence (P06493 whole entry): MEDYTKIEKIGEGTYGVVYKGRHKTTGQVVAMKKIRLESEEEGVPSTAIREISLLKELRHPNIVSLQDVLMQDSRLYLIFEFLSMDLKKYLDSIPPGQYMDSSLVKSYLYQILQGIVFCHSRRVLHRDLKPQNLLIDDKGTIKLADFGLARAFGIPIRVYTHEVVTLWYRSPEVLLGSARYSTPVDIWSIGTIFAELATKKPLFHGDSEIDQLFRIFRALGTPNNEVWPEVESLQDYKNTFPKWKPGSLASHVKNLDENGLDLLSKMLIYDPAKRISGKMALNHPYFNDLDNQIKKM
T2 sequence (P14635 whole entry partner): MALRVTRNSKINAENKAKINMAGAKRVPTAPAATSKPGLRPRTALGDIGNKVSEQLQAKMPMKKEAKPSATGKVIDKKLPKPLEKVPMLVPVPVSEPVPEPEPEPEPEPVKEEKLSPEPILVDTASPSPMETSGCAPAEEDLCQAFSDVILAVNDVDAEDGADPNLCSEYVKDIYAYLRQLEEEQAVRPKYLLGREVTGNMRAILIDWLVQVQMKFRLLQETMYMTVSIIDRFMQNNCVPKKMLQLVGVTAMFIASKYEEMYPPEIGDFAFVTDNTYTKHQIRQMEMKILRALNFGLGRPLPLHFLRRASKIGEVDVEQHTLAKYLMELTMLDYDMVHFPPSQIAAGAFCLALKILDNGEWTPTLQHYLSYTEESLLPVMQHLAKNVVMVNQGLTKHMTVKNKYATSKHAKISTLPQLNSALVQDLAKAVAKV
Experimental: as §1, §2, §3

CDK7 = target: T3, CDK7 (Homo sapiens, UniProt P50613); assay: CDK7 kinase activity inhibition (ADP-Glo); type: biochemical; conditions: 10 μM ATP, 2 h at room temperature
T3 construct: purchased Carna Biosciences, Inc
T3 sequence (P50613 whole entry): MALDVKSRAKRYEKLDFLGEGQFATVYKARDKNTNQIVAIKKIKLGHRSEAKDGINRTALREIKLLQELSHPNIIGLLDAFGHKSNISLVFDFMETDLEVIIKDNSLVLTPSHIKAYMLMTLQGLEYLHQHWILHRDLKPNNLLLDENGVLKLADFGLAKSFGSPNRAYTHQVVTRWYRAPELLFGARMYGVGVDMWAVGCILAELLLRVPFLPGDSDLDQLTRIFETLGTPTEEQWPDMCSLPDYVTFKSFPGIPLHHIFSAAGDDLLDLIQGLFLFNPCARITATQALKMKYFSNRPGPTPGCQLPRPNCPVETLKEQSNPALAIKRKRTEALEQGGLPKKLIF
T3 sequence (P51946 whole entry partner): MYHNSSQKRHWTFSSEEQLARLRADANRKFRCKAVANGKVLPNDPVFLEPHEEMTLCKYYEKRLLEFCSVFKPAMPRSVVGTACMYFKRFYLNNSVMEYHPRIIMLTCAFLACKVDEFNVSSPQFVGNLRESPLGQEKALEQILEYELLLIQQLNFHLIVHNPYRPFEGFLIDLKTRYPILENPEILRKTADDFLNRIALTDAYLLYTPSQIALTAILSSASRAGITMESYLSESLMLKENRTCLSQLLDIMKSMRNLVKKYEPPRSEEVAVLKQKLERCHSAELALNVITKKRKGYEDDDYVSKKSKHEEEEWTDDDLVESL
T3 sequence (P51948 whole entry partner): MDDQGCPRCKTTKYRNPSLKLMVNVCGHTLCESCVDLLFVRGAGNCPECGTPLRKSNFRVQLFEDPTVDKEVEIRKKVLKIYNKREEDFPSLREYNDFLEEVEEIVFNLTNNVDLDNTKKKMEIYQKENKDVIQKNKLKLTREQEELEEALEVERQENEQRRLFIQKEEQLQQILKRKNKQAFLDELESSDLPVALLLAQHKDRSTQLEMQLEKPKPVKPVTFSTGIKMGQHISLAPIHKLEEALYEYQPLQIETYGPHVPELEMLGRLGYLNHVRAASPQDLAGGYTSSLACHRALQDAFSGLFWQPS
Experimental: as §1, §2, §3

[1] = acute myeloid leukemia cell line MOLM-13, 16 h incubation, CellTiter-Glo

CDK9, sequence (P50750 whole entry): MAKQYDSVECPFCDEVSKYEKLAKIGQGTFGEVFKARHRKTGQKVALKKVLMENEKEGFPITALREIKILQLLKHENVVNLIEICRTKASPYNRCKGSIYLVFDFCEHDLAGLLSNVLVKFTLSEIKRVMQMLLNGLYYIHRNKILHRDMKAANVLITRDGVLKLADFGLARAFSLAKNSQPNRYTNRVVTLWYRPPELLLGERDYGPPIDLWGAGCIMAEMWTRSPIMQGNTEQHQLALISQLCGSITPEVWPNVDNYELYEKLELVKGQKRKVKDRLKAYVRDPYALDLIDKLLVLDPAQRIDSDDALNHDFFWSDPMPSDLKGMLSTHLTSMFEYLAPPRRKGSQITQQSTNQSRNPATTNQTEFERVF
CDK9, sequence (O60563 whole entry partner): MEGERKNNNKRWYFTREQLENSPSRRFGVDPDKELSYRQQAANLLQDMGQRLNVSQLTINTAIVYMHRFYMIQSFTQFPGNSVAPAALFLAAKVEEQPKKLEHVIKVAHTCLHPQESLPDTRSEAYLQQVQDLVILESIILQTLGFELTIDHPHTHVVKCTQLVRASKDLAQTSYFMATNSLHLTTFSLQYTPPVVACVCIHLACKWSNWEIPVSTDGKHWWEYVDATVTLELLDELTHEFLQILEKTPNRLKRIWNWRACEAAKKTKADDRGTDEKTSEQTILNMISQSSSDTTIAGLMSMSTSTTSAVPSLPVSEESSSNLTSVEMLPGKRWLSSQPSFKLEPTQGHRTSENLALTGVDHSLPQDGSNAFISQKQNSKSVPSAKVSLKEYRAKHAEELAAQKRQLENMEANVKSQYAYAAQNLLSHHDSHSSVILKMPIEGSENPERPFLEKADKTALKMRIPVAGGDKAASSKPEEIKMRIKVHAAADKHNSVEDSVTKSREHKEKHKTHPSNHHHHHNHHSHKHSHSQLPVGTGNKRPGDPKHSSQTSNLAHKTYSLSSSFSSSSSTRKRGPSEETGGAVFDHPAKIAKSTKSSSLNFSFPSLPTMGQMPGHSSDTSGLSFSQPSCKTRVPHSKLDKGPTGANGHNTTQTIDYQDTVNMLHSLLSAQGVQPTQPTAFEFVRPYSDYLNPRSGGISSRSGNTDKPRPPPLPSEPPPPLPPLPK

Row | IC50 (CDK9) [nM] | IC50 (CDK2) [nM] | IC50 (CDK1) [nM] | IC50 (CDK7) [nM] | IC50 (MOLM-13 cells; [1]) [nM] | SMILES | IC50 (MOLM-13 cells; MOLM-13, 16 h) [nM]
1 | 7.1 | 408 | > 10000 | 8760 | 70.9 | CC(=O)NC[C@H]1CCC(F)(F)CN1C(=O)c1nc(Nc2cc(Cl)ccn2)ccc1C [Compound 24, (R)—N-((1-(6-((4-chloropyridin-2-yl)amino)-3-methylpyridine-2-carbonyl)-5,5-difluoropiperidin-2-yl)methyl)acetamide] | 
2 |  | 811 | 570 | 4290 | 118 | COc1cc(F)ccc1-c1cc(Nc2cc(CS(C)(=N)=O)ccn2)ncc1F (stereo not drawn) [BAY1251152, reference compound] | 
3 | 3 | 30 | 261 | 479 | 63.1 | Cc1ccc(Nc2cc(OC(F)(F)F)ccn2)nc1C(=O)N1CC(F)(F)CC[C@@H]1CN [Compound 34, (R)-(2-(aminomethyl)-5,5-difluoropiperidin-1-yl)(3-methyl-6-((4-(trifluoromethoxy)pyridin-2-yl)amino)pyridin-2-yl)methanone] | 
4 | 5.8 | 217 | 350 | 2600 | 27.9 | CC(=O)NC[C@H]1CCC(F)(F)CN1C(=O)c1nc(Nc2cc(OC(F)(F)F)ccn2)ccc1C [Compound 5, (R)—N-((5,5-difluoro-1-(3-methyl-6-((4-(trifluoromethoxy)pyridin-2-yl)amino)pyridine-2-carbonyl)piperidin-2-yl)methyl)acetamide] | 
5 | 6.3 | 120 |  |  | 120 | CC(=O)NC[C@H]1CCC(F)(F)CN1C(=O)c1nc(Nc2cc(OC(F)(F)F)ccn2)ccc1F [Compound 64, (R)—N-((5,5-difluoro-1-(3-fluoro-6-((4-(trifluoromethoxy)pyridin-2-yl)amino)pyridine-2-carbonyl)piperidin-2-yl)methyl)acetamide] | 
6 |  | 18.6 | 8.3 | 31.4 | 17.1 | CC(=O)N[C@@H]1CCC[C@H](C(=O)Nc2cc(-c3cnn4c3CC(C)(C)C4)c(Cl)cn2)C1 [AZD4573, reference compound] | 
7 | 5.8 | 144 | 426 | 4570 | 22.1 | CC(=O)NC[C@H]1CCC(F)(F)CN1C(=O)c1nc(Nc2cc(C(F)F)ccn2)ccc1C [Compound 27, (R)—N-((1-(6-((4-(difluoromethyl)pyridin-2-yl)amino)-3-methylpyridine-2-carbonyl)-5,5-difluoropiperidin-2-yl)methyl)acetamide] | 
8 | 7.2 | 258 |  |  | 198 | CC(=O)NC[C@H]1CCC(F)(F)CN1C(=O)c1cccc(Nc2cc(OC(F)(F)F)ccn2)n1 [Compound 80, (R)—N-((5,5-difluoro-1-(6-((4-(trifluoromethoxy)pyridin-2-yl)amino)pyridine-2-carbonyl)piperidin-2-yl)methyl)acetamide] | 
9 | 119 | 844 |  |  | 938 | Cc1ccc(Nc2cc(OC(F)(F)F)ccn2)nc1C(=O)N1CC(F)(F)CCC1C(=O)N1CCCC1 (stereo not drawn) [Compound 47, (5,5-Difluoro-1-(3-methyl-6-((4-(trifluoromethoxy)pyridin-2-yl)amino)pyridine-2-carbonyl)piperidin-2-yl)(pyrrolidin-1-yl)methanone] | 
10 | 7.7 | 1270 |  |  | 112 | Cc1ccc(Nc2cc(OC(F)(F)F)ccn2)nc1C(=O)N1CC(F)(F)CC[C@@H]1CNC(=O)C1CC1 [Compound 51, (R)—N-((5,5-difluoro-1-(3-methyl-6-((4-(trifluoromethoxy)pyridin-2-yl)amino)pyridine-2-carbonyl)piperidin-2-yl)methyl)cyclopropanecarboxamide] | 
11 | 9 | 48.7 | 106 | 7780 | 24.2 | CC(=O)NC[C@H]1CCC(F)(F)CN1C(=O)c1nc(Nc2cc([N+](=O)[O-])ccn2)ccc1C [Compound 19, (R)—N-((5,5-difluoro-1-(3-methyl-6-((4-nitropyridin-2-yl)amino)pyridine-2-carbonyl)piperidin-2-yl)methyl)acetamide] | 
12 | 6.8 | 61.2 | 140 | 656 | 66.8 | NC[C@H]1CCC(F)(F)CN1C(=O)c1nc(Nc2cc(OC(F)(F)F)ccn2)ccc1F [Compound 67, (R)-(2-(aminomethyl)-5,5-difluoropiperidin-1-yl)(3-fluoro-6-((4-(trifluoromethoxy)pyridin-2-yl)amino)pyridin-2-yl)methanone] | 
13 | 5.1 | 368 | 755 | 4350 | 45.3 | CC(=O)NC[C@H]1CCC(F)(F)CN1C(=O)c1nc(Nc2cc(OC(F)F)ccn2)ccc1C [Compound 11, (R)—N-((1-(6-((4-(difluoromethoxy)pyridin-2-yl)amino)-3-methylpyridine-2-carbonyl)-5,5-difluoropiperidin-2-yl)methyl)acetamide] | 
14 | 70.5 | 797 |  |  | 894 | CC(=O)N[C@@H]1C[C@H](Nc2nc(Nc3cc(OC(F)(F)F)ccn3)ccc2C)CC(F)(F)C1 [Compound 60, N-((1R,5S)-3,3-difluoro-5-((3-methyl-6-((4-(trifluoromethoxy)pyridin-2-yl)amino)pyridin-2-yl)amino)cyclohexyl)acetamide] | 
15 | 16.4 | 2870 |  |  | 683 | Cc1ccc(Nc2cc(OC(F)(F)F)ccn2)nc1C(=O)N1CC(F)(F)CC[C@@H]1CN1CCCC1=O [Compound 48, (R)-1-((5,5-difluoro-1-(3-methyl-6-((4-(trifluoromethoxy)pyridin-2-yl)amino)pyridine-2-carbonyl)piperidin-2-yl)methyl)pyrrolidinone-2-one] | 
16 | 4.9 | 36.7 |  | 1950 | 24.8 | CC(=O)NC[C@H]1CCC(F)(F)CN1C(=O)c1nc(Nc2cc(C#N)ccn2)ccc1C [Compound 1, (R)—N-((1-(6-((4-cyanopyridin-2-yl)amino)-3-methylpyridine-2-carbonyl)-5,5-difluoropiperidin-2-yl)methyl)acetamide] | 
17 | 9.4 | 1260 |  |  | 133 | CC(=O)NC[C@H]1CCC(F)(F)CN1C(=O)c1nc(Nc2cc(CF)ccn2)ccc1C [Compound 28, (R)—N-((5,5-difluoro-1-(6-((4-(fluoromethyl)pyridin-2-yl)amino)-3-methylpyridine-2-carbonyl)piperidin-2-yl)methyl)acetamide] | 

Row | SMILES | IC50 (CDK9) [nM] | IC50 (CDK2) [nM] | IC50 (CDK1) [nM] | IC50 (CDK7) [nM] | IC50 (MOLM-13 cells; [1]) [nM] | IC50 (MOLM-13 cells; MOLM-13, 16 h) [nM]
18 | CC(=O)NC[C@H]1CCC(F)(F)CN1C(=O)c1nc(Nc2cc(OC(F)(F)F)ccn2)ccc1Cl [Compound 84, (R)—N-((1-(3-chloro-6-((4-(trifluoromethoxy)pyridin-2-yl)amino)pyridine-2-carbonyl)-5,5-difluoropiperidin-2-yl)methyl)acetamide] | 6.2 | 577 |  |  |  | 58.6
19 | COC(=O)c1ccnc(Nc2ccc(C)c(C(=O)N3CC(F)(F)CC[C@@H]3CNC(C)=O)n2)c1 [Compound 56, (R)-2-((6-(2-(acetamidomethyl)-5,5-difluoropiperidine-1-carbonyl)-5-methylpyridin-2-yl)amino)methyl isonicotinate] | 7.7 | 924 | 3750 |  |  | 180
